Laboratory results: patent US20110039763A1, “TARGETED ANTIMICROBIAL MOIETIES” (C3 JIAN, INC., priority 2009, published 2011)
“Also recorded” adds a separate entry of the source.

Tested on: microorganisms
Test: Targeting peptide binding to target microorganisms (Tables 3, 10, 12)
Details: preferably 1x PBS; for Target(s) (microorganism bound by the targeting peptide): peptide binding in aqueous buffers that varied with peptide solubility; for Target(s): microorganism(s) the targeting peptide binds, binding in aqueous buffers that varied with peptide solubility

Substance	Target(s) (microorganism bound by the targeting peptide)	Target(s)
1T-90 (RNVIGQVL; Peptide with targeting and/or antimicrobial activity)	S. gordonii; also recorded: S. mitis; also recorded: S. mutans; also recorded: S. oralis; also recorded: S. sanguinis	
1T-91 (TSVRPGAAGAAVPAGAAGAAGAGWRWP; Peptide with targeting and/or antimicrobial activity)	S. mitis; also recorded: S. mutans; also recorded: S. oralis; also recorded: S. sanguinis	
1T-92 (GQDEGQRRAGVGEGQGVDG; Peptide with targeting and/or antimicrobial activity)	S. mitis; also recorded: S. mutans	
1T-93 (AMRSVNQA; Peptide with targeting and/or antimicrobial activity)	S. epidermidis; also recorded: S. gordonii; also recorded: S. mitis; also recorded: S. mutans; also recorded: S. oralis; also recorded: S. sanguinis	
1T-94 (DQVAHSGDMLVQARRRDS; Peptide with targeting and/or antimicrobial activity)	S. mitis; also recorded: S. mutans; also recorded: S. oralis	
1T-95 (GHLLRVGGRVGGVGGVAGACAQPFGGQ; Peptide with targeting and/or antimicrobial activity)	S. gordonii; also recorded: S. mitis; also recorded: S. mutans; also recorded: S. oralis; also recorded: S. sanguinis	
1T-96 (VAGACAQPFGGQ; Peptide with targeting and/or antimicrobial activity)	S. gordonii; also recorded: S. mitis; also recorded: S. mutans; also recorded: S. oralis; also recorded: S. sanguinis	
1T-99 (MKAWLGQ; Peptide with targeting and/or antimicrobial activity)	S. gordonii; also recorded: S. mitis; also recorded: S. mutans; also recorded: S. oralis; also recorded: S. sanguinis	
1T-100 (LDPLEPRIAPPGDRSHQGAPACHRDPLRGRSARDAER; Peptide with targeting and/or antimicrobial activity)	S. gordonii; also recorded: S. mitis; also recorded: S. mutans	
1T-101 (RLRVGRATDLPLTSFAVGVVRNLPDAPAH; Peptide with targeting and/or antimicrobial activity)	A. naeslundii; also recorded: P. gingivalis; also recorded: S. epidermidis; also recorded: S. gordonii; also recorded: S. mitis; also recorded: S. mutans; also recorded: S. oralis; also recorded: S. sanguinis	
1T-104 (RAVAAHLQGRHHGHQVRRQRHGQR; Peptide with targeting and/or antimicrobial activity)	S. mitis	
1T-105 (GEGLPPPVLHLPPPRMSGR; Peptide with targeting and/or antimicrobial activity)	S. epidermidis; also recorded: S. gordonii; also recorded: S. mitis; also recorded: S. mutans; also recorded: S. oralis	
1T-106 (DALRRSRSQGRRHR; Peptide with targeting and/or antimicrobial activity)	S. gordonii; also recorded: S. mitis; also recorded: S. mutans; also recorded: S. oralis; also recorded: S. salivarious	
1T-107 (SPVPRFTAVGGVSRGSP; Peptide with targeting and/or antimicrobial activity)	A. naeslundii; also recorded: S. epidermidis; also recorded: S. gordonii; also recorded: S. mitis; also recorded: S. mutans; also recorded: S. oralis; also recorded: S. salivarious; also recorded: S. sanguinis	
1T-108 (WGPLGPERPLW; Peptide with targeting and/or antimicrobial activity)	S. gordonii; also recorded: S. mitis; also recorded: S. mutans; also recorded: S. oralis; also recorded: S. salivarious; also recorded: S. sanguinis	
1T-109 (VTTNVRQGAGS; Peptide with targeting and/or antimicrobial activity)	A. naeslundii; also recorded: S. epidermidis; also recorded: S. gordonii; also recorded: S. mitis; also recorded: S. mutans; also recorded: S. oralis; also recorded: S. salivarious; also recorded: S. sanguinis	
1T-110 (LAAKTAVCVGRAFM; Peptide with targeting and/or antimicrobial activity)	A. naeslundii; also recorded: P. gingivalis; also recorded: S. epidermidis; also recorded: S. gordonii; also recorded: S. mitis; also recorded: S. mutans; also recorded: S. oralis; also recorded: S. sanguinis	
1T-112 (SDNDGKLILGTSQ; Peptide with targeting and/or antimicrobial activity)	S. gordonii	
1T-113 (HGAHQRTGQRLHHHRGRTVSGCRQNPVAGVDPDEHR; Peptide with targeting and/or antimicrobial activity)	S. mitis	
1T-114 (RQAPGPGLVTITAACSAPGSRSR; Peptide with targeting and/or antimicrobial activity)	A. naeslundii; also recorded: P. gingivalis; also recorded: S. epidermidis; also recorded: S. gordonii; also recorded: S. mitis; also recorded: S. mutans; also recorded: S. oralis; also recorded: S. sanguinis	
1T-117 (GPGVVGPAPFSRLPAHALNL; Peptide with targeting and/or antimicrobial activity)	S. mutans	

Substance	Target(s) (microorganism bound by the targeting peptide)	Target(s)
1T-119 (SPATQKAPTRAQPSRAPVQDCGDGRPTAAPDDVERLSPR; Peptide with targeting and/or antimicrobial activity)	S. gordonii; also recorded: S. mitis; also recorded: S. mutans; also recorded: S. oralis	
1T-121 (FAKETGFGIGGAQEGWWIIADIYGPNPF; Peptide with targeting and/or antimicrobial activity)	S. gordonii; also recorded: S. mitis; also recorded: S. mutans; also recorded: S. oralis; also recorded: S. salivarious; also recorded: S. sanguinis	
1T-122 (GAIPDPVTHRVDWEEDHQTRPSR; Peptide with targeting and/or antimicrobial activity)	S. mitis	
1T-123 (LVRRNAVAGRSDGLAGAEQLDLVRLQGVL; Peptide with targeting and/or antimicrobial activity)	S. gordonii	
1T-124 (LFDERNKIA; Peptide with targeting and/or antimicrobial activity)	S. mitis; also recorded: S. mutans; also recorded: S. oralis	
1T-125 (DAITGGNPPLSDTDGLRP; Peptide with targeting and/or antimicrobial activity)	S. epidermidis; also recorded: S. gordonii; also recorded: S. mutans; also recorded: S. oralis	
1T-126 (QGLARPVLRRIPL; Peptide with targeting and/or antimicrobial activity)	S. gordonii; also recorded: S. mitis; also recorded: S. mutans	
1T-139 (AVAGAAVGALLGNDARSTAVGAAIGGALGAGAGELTKNK; Peptide with targeting and/or antimicrobial activity)	A. naeslundii; also recorded: S. gordonii; also recorded: S. mitis; also recorded: S. mutans; also recorded: S. oralis	
1T-141 (KKFIILLFILVQGLIFSATKTLSDIIAL; Peptide with targeting and/or antimicrobial activity)	F. nucleatum; also recorded: P. gingivalis; also recorded: S. epidermidis; also recorded: S. gordonii; also recorded: S. mitis; also recorded: S. mutans; also recorded: S. oralis; also recorded: S. sanguinis	
1T-145 (VEAGKRNISLENIEKISKGLGISISELFKYIEEGEDKIG; Peptide with targeting and/or antimicrobial activity)	S. mitis; also recorded: S. mutans; also recorded: S. oralis	
1T-154 (YFSFLEIVGMARR; Peptide with targeting and/or antimicrobial activity)	P. gingivalis	
1T-159 (IFSLHHFALICSEMGTFAVSKRAKYKWEVL; Peptide with targeting and/or antimicrobial activity)	P. gingivalis	
1T-170 (AYGKVFSMDIMLSENDKLIVLRISHHSAWH; Peptide with targeting and/or antimicrobial activity)	P. gingivalis	
1T-177 (GTNVPTQILGYSREERFDYEPAPEQR; Peptide with targeting and/or antimicrobial activity)	P. gingivalis; also recorded: S. gordonii; also recorded: S. mitis; also recorded: S. mutans; also recorded: S. oralis; also recorded: S. salivarious; also recorded: S. sanguinis	
1T-185 (HYHFLLEFGFHKGDYLE; Peptide with targeting and/or antimicrobial activity)	A. naeslundii; also recorded: F. nucleatum; also recorded: P. gingivalis; also recorded: T. denticola; also recorded: S. gordonii	S. mitis; also recorded: S. mutans; also recorded: S. oralis; also recorded: S. salivarious; also recorded: S. sanguinis
1T-188 (HRKDVYKK; Peptide with targeting and/or antimicrobial activity)		S. sanguinis
1T-192 (ILVLLALQVELDSKFQY; Peptide with targeting and/or antimicrobial activity)		S. sanguinis
1T-193 (LMIFDKHANLKYKYGNRSFGVEAIM; Peptide with targeting and/or antimicrobial activity)		S. sanguinis
1T-195 (AASGFTYCASNGVWHPY; Peptide with targeting and/or antimicrobial activity)		S. mutans
1T-196 (KPEKEKLDTNTLMKVVNKALSLFDRLLIKFGA; Peptide with targeting and/or antimicrobial activity)		F. nucleatum; also recorded: S. sanguinis
